Results from patent US11142525B2 (Pfizer Inc., priority 2018, dated 2021).

Experiments:
[1] = tested on: phospho-SLP-76 (Ser376) in Jurkat cells; test: Phospho-SLP-76 (Ser376) Homogeneous Time Resolved Fluorescence (HTRF) assay in Jurkat cells; assay type: cell-based; conditions: Homo sapiens, Phospho-SLP-76 (Ser376) HTRF, anti-CD3 stimulation, read-out: SLP76 Assay_IC50
Procedure, shortened: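 Phospho-SLP-76 in lysates was read by sandwich HTRF and IC50 derived by four-parameter nonlinear regression. Before lysis, cells had received compound for 30 min (11-point, 3-fold series from 10 μM, 0.1% DMSO), followed by anti-CD3 F(ab)2 complex (200 μg/mL, 15 min, 37 °C).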

[2] = biological target: human full-length recombinant HPK1 (Homo sapiens (Human), UniProt Q92918); test: HPK1 biochemical enzyme assay, microfluidic mobility shift assay (MSA); conditions: HPK1 mobility shift assay; read-out: HPK1 Enzyme Assay_Ki
Sequence of human full-length recombinant HPK1 (Q92918 whole entry): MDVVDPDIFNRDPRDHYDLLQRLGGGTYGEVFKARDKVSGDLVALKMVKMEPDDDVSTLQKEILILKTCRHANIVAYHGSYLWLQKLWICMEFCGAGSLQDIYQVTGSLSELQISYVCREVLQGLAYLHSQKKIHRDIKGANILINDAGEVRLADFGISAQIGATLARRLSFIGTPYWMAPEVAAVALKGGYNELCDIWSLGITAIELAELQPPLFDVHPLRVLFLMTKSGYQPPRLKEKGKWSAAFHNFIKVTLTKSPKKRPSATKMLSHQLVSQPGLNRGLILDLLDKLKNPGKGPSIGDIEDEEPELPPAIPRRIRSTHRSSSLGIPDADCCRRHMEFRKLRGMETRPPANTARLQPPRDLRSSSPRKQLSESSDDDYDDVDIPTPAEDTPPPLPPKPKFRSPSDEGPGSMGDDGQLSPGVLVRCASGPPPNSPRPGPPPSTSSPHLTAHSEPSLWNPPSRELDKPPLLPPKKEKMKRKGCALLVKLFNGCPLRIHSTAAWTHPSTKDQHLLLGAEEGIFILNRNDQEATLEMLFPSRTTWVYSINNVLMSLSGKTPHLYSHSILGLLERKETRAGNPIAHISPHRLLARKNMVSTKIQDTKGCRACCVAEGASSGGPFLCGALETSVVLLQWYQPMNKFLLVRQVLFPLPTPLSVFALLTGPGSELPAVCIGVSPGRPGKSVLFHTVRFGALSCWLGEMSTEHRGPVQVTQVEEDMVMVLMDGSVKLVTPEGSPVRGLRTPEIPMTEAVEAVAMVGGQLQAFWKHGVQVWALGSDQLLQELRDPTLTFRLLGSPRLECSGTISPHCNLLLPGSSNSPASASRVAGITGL

IC50 [1] [nM] | Ki [2] [nM] | SMILES
874 | 0.63 | CCCn1c(C)nnc1-c1cccc(N2Cc3c(cc(C4(C)CC4)nc3CN)C2=O)n1 [Example 128, 4-(aminomethyl)-6-(1-methylcyclopropyl)-2-[6-(5-methyl-4-propyl-4H-1,2,4-triazol-3-yl)pyridin-2-yl]-2,3-dihydro-1H-pyrrolo[3,4-c]pyridin-1-one]
93 | 0.31 | CCC(CC)n1cnnc1-c1cccc(N2Cc3c(cc(C4CC4)nc3CN)C2=O)n1 [Example 129, 4-(aminomethyl)-6-cyclopropyl-2-{6-[4-(pentan-3-yl)-4H-1,2,4-triazol-3-yl]pyridin-2-yl}-2,3-dihydro-1H-pyrrolo[3,4-c]pyridin-1-one]
201 | 0.78 | CCCn1c(C)nnc1-c1cccc(N2Cc3c(cc(N(C)CC)nc3CNC)C2=O)n1 [Example 130, 6-[ethyl(methyl)amino]-4-[(methylamino)methyl]-2-[6-(5-methyl-4-propyl-4H-1,2,4-triazol-3-yl)pyridin-2-yl]-2,3-dihydro-1H-pyrrolo[3,4-c]pyridin-1-one]
57 | 0.11 | CCN(C)c1cc2c(c(CNC)n1)CN(c1cccc(-c3nncn3CC)n1)C2=O [Example 131, 6-[ethyl(methyl)amino]-2-[6-(4-ethyl-4H-1,2,4-triazol-3-yl)pyridin-2-yl]-4-[(methylamino)methyl]-2,3-dihydro-1H-pyrrolo[3,4-c]pyridin-1-one]
67 | 0.2 | C[C@H]1CCCN1c1cc2c(c(CN)n1)CN(c1cccc(N3C(=O)OC[C@@H]3C)n1)C2=O [Example 132, 4-(aminomethyl)-2-{6-[(4S)-4-methyl-2-oxo-1,3-oxazolidin-3-yl]pyridin-2-yl}-6-[(2S)-2-methylpyrrolidin-1-yl]-2,3-dihydro-1H-pyrrolo[3,4-c]pyridin-1-one]
> 10000 | 0.8 | CCC(CC)n1c(C)nnc1-c1cccc(N2Cc3c(cc(N4CCC[C@@H]4C)nc3CNC)C2=O)n1 [Example 135, 4-[(methylamino)methyl]-2-{6-[5-methyl-4-(pentan-3-yl)-4H-1,2,4-triazol-3-yl]pyridin-2-yl}-6-[(2S)-2-methylpyrrolidin-1-yl]-2,3-dihydro-1H-pyrrolo[3,4-c]pyridin-1-one]
106 | 0.73 | CCCn1cnnc1-c1cccc(N2Cc3c(cc(N4[C@H](C)CC[C@H]4C)nc3CN)C2=O)n1 [Example 136, 4-(aminomethyl)-6-[(2R,5R)-2,5-dimethylpyrrolidin-1-yl]-2-[6-(4-propyl-4H-1,2,4-triazol-3-yl)pyridin-2-yl]-2,3-dihydro-1H-pyrrolo[3,4-c]pyridin-1-one]
76 | 0.28 | C[C@@H]1CC[C@@H](C)N1c1cc2c(c(CN)n1)CN(c1cccc(N3C(=O)OC[C@@H]3C)n1)C2=O [Example 137, 4-(aminomethyl)-6-[(2R,5R)-2,5-dimethylpyrrolidin-1-yl]-2-{6-[(4S)-4-methyl-2-oxo-1,3-oxazolidin-3-yl]pyridin-2-yl}-2,3-dihydro-1H-pyrrolo[3,4-c]pyridin-1-one]
> 10000 | 0.09 | CCC(CC)n1cnnc1-c1cccc(N2Cc3c(cc(N4CCC[C@@H]4C)nc3CNC)C2=O)n1 [Example 138, 4-[(methylamino)methyl]-6-[(2S)-2-methylpyrrolidin-1-yl]-2-{6-[4-(pentan-3-yl)-4H-1,2,4-triazol-3-yl]pyridin-2-yl}-2,3-dihydro-1H-pyrrolo[3,4-c]pyridin-1-one]

The remaining lines, values behind:

SMILES | IC50 [1] [nM] | Ki [2] [nM]
CCn1c(C)nnc1-c1cccc(N2Cc3c(cc(N4[C@H](C)CC[C@H]4C)nc3CNC)C2=O)n1 [Example 111, 6-[(2R,5R)-2,5-dimethylpyrrolidin-1-yl]-2-[6-(4-ethyl-5-methyl-4H-1,2,4-triazol-3-yl)pyridin-2-yl]-4-[(methylamino)methyl]-2,3-dihydro-1H-pyrrolo[3,4-c]pyridin-1-one] | 147 | 1.01
CNCc1nc(N2C[C@@H](C)O[C@@H](C)C2)cc2c1CN(c1cccc(-c3nncn3C(C)C)n1)C2=O [Example 112, 6-[2,6-dimethylmorpholin-4-yl]-4-[(methylamino)methyl]-2-{6-[4-(propan-2-yl)-4H-1,2,4-triazol-3-yl]pyridin-2-yl}-2,3-dihydro-1H-pyrrolo[3,4-c]pyridin-1-one] | 431 | 1.49
CCCn1cnnc1-c1cccc(N2Cc3c(cc(N4CCC[C@H]4C(F)(F)F)nc3CNC)C2=O)n1 [Example 113, 4-[(methylamino)methyl]-2-[6-(4-propyl-4H-1,2,4-triazol-3-yl)pyridin-2-yl]-6-[(2S)-2-(trifluoromethyl)pyrrolidin-1-yl]-2,3-dihydro-1H-pyrrolo[3,4-c]pyridin-1-one] | 83 | 0.22
CCn1cnnc1-c1cccc(N2Cc3c(cc(N4CCC[C@@H]4C)nc3CNC)C2=O)n1 [Example 114, 2-[6-(4-ethyl-4H-1,2,4-triazol-3-yl)pyridin-2-yl]-4-[(methylamino)methyl]-6-[(2S)-2-methylpyrrolidin-1-yl]-2,3-dihydro-1H-pyrrolo[3,4-c]pyridin-1-one] | 37 | 0.12
CCn1cnnc1-c1cccc(N2Cc3c(cc(N4CCC[C@H]4C)nc3CNC)C2=O)n1 [Example 115, 2-[6-(4-ethyl-4H-1,2,4-triazol-3-yl)pyridin-2-yl]-4-[(methylamino)methyl]-6-[(2R)-2-methylpyrrolidin-1-yl]-2,3-dihydro-1H-pyrrolo[3,4-c]pyridin-1-one] | 21 | < 0.09
CNCc1nc(N2[C@H](C)CC[C@H]2C)cc2c1CN(c1cccc(-c3nnc(C)n3C(C)C)n1)C2=O [Example 116, 6-[(2R,5R)-2,5-dimethylpyrrolidin-1-yl]-4-[(methylamino)methyl]-2-{6-[5-methyl-4-(propan-2-yl)-4H-1,2,4-triazol-3-yl]pyridin-2-yl}-2,3-dihydro-1H-pyrrolo[3,4-c]pyridin-1-one] | 381 | 1.04
CCC(CC)n1cnnc1-c1cccc(N2Cc3c(cc(N(C)C)nc3CN)C2=O)n1 [Example 117, 4-(aminomethyl)-6-(dimethylamino)-2-{6-[4-(pentan-3-yl)-4H-1,2,4-triazol-3-yl]pyridin-2-yl}-2,3-dihydro-1H-pyrrolo[3,4-c]pyridin-1-one] | 89 | 0.46
CNCc1nc(N2[C@H](C)CC[C@H]2C)cc2c1CN(c1cccc(N3C(=O)OC[C@@H]3CF)n1)C2=O [Example 118, 6-[(2R,5R)-2,5-dimethylpyrrolidin-1-yl]-2-{6-[(4R)-4-(fluoromethyl)-2-oxo-1,3-oxazolidin-3-yl]pyridin-2-yl}-4-[(methylamino)methyl]-2,3-dihydro-1H-pyrrolo[3,4-c]pyridin-1-one] | 149 | 0.89
CCC(CC)n1cnnc1-c1cccc(N2Cc3c(cc(N4[C@H](C)CC[C@H]4C)nc3CN)C2=O)n1 [Example 119, 4-(aminomethyl)-6-[(2R,5R)-2,5-dimethylpyrrolidin-1-yl]-2-{6-[4-(pentan-3-yl)-4H-1,2,4-triazol-3-yl]pyridin-2-yl}-2,3-dihydro-1H-pyrrolo[3,4-c]pyridin-1-one] | 104 | 0.52
CCCn1cnnc1-c1cccc(N2Cc3c(cc(N4CCC[C@@H]4C(F)(F)F)nc3CNC)C2=O)n1 [Example 120, 4-[(methylamino)methyl]-2-[6-(4-propyl-4H-1,2,4-triazol-3-yl)pyridin-2-yl]-6-[(2R)-2-(trifluoromethyl)pyrrolidin-1-yl]-2,3-dihydro-1H-pyrrolo[3,4-c]pyridin-1-one] | 56 | < 0.09
CCC(CC)n1cnnc1-c1cccc(N2Cc3c(cc(N(CC)CC)nc3CN)C2=O)n1 [Example 122, 4-(aminomethyl)-6-(diethylamino)-2-{6-[4-(pentan-3-yl)-4H-1,2,4-triazol-3-yl]pyridin-2-yl}-2,3-dihydro-1H-pyrrolo[3,4-c]pyridin-1-one] | 70 | 0.41
CCN(c1cc2c(c(CN)n1)CN(c1cccc(N3C(=O)OC[C@@H]3CF)n1)C2=O)C(C)C [Example 123, 4-(aminomethyl)-6-[ethyl(propan-2-yl)amino]-2-{6-[(4R)-4-(fluoromethyl)-2-oxo-1,3-oxazolidin-3-yl]pyridin-2-yl}-2,3-dihydro-1H-pyrrolo[3,4-c]pyridin-1-one] | 273 | 1.03
C[C@@H]1CC[C@@H](C)N1c1cc2c(c(CN)n1)CN(c1cccc(N3C(=O)OC[C@@H]3CF)n1)C2=O [Example 124, 4-(aminomethyl)-6-[(2R,5R)-2,5-dimethylpyrrolidin-1-yl]-2-{6-[(4R)-4-(fluoromethyl)-2-oxo-1,3-oxazolidin-3-yl]pyridin-2-yl}-2,3-dihydro-1H-pyrrolo[3,4-c]pyridin-1-one] | 375 | 1.5
C[C@@H]1CCCN1c1cc2c(c(CN)n1)CN(c1cccc(N3C(=O)OC[C@@H]3C)n1)C2=O [Example 125, 4-(aminomethyl)-2-{6-[(4S)-4-methyl-2-oxo-1,3-oxazolidin-3-yl]pyridin-2-yl}-6-[(2R)-2-methylpyrrolidin-1-yl]-2,3-dihydro-1H-pyrrolo[3,4-c]pyridin-1-one] | 50 | 0.1
CCC(CC)n1cnnc1-c1cccc(N2Cc3c(cc(C4(C)CC4)nc3CN)C2=O)n1 [Example 126, 4-(aminomethyl)-6-(1-methylcyclopropyl)-2-{6-[4-(pentan-3-yl)-4H-1,2,4-triazol-3-yl]pyridin-2-yl}-2,3-dihydro-1H-pyrrolo[3,4-c]pyridin-1-one] | 114 | 0.8
CCn1c(C)nnc1-c1cccc(N2Cc3c(cc(C4(C)CC4)nc3CN)C2=O)n1 [Example 127, 4-(aminomethyl)-2-[6-(4-ethyl-5-methyl-4H-1,2,4-triazol-3-yl)pyridin-2-yl]-6-(1-methylcyclopropyl)-2,3-dihydro-1H-pyrrolo[3,4-c]pyridin-1-one] | 435 | 1.52
